According to ChEMBL document CHEMBL3045485, “Synthesis of combretastatin analogs: evaluation of in vitro anticancer activity and molecular docking studies” (Med Chem Res, 2012):

Columns and labels:
Format in all cases: functional
MCF7 = experiment: Cytotoxicity against Homo sapiens (human) MCF-7 cells assessed as growth inhibition at 1 x 10^-6 mole after 48 hr by SRB assay
SF-295 = experiment: Cytotoxicity against Homo sapiens (human) SF295 cells assessed as growth inhibition at 1 x 10^-6 mole after 48 hr by SRB assay
THP-1 = experiment: Cytotoxicity against Homo sapiens (human) THP1 cells assessed as growth inhibition at 2 x 10^-5 mole after 48 hr by SRB assay
COLO 205 = experiment: Cytotoxicity against Homo sapiens (human) COLO205 cells assessed as growth inhibition at 2 x 10^-5 mole after 48 hr by SRB assay

| SMILES | growth inhibition (GI) (MCF7) | growth inhibition (GI) (SF-295) | growth inhibition (GI) (THP-1) | growth inhibition (GI) (COLO 205) |
| --- | --- | --- | --- | --- |
| COc1cccc2c1C(=O)c1c(O)c3c(c(O)c1C2=O)C[C@@](O)(C(=O)CO)C[C@@H]3O[C@H]1C[C@H](N)[C@H](O)[C@H](C)O1.Cl [DOXORUBICIN HYDROCHLORIDE] | 77% | 87% | – | – |
| O=c1[nH]cc(F)c(=O)[nH]1 [FLUOROURACIL] | – | – | 69% | 74% |
